Data from article PMC11882969 (Nature Communications, 2025).

Molecular target: CB1 (rCB1) (Rattus norvegicus, UniProt P20272)
Test: Single-point radioligand displacement screen
Format: binding
Details: for % 1H-CP-55,940 displacement (mean) from single point screen: 10 µM, 1 µM or 300 nM by cell colour (not visible); for rep1_displacement / rep2_displacement / rep3_displacement: Figure 1c source data; for rep1_displacement: replicate 1; for rep2_displacement: replicate 2; for rep3_displacement: replicate 3

Chain of CB1 (rCB1) (P20272 whole entry): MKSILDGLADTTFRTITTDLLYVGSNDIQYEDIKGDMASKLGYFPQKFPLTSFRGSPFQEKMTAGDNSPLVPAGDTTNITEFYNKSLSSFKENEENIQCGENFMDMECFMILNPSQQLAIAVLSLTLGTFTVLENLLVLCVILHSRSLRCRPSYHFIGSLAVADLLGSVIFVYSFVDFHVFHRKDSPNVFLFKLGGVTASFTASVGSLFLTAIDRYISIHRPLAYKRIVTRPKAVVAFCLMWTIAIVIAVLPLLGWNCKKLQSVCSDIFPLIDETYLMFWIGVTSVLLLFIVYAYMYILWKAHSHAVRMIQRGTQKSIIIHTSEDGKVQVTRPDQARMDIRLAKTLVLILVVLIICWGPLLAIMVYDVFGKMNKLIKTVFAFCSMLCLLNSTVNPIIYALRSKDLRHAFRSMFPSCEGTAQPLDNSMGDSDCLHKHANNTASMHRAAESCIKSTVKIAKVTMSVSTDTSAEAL

Row | Compound | % 1H-CP-55,940 displacement (mean) from single point screen | rep1_displacement | rep2_displacement | rep3_displacement
1 | CCOC(=O)CCC(OC(=O)c1nc(C)n(-c2ccccc2)n1)c1ccccc1 (centres unmarked) [compound 11070] | 34.00% | 33.8 | 28.7 | 39.6
2 | COC(=O)C(NC(=O)c1cc(C)n(-c2cccc(F)c2)n1)c1ccc2c(c1)CCO2 (centres unmarked) [compound 12208] | -5.83% |  |  | 
3 | COc1cc(OC)cc(-c2nc([C@H](OC)c3ccc(Br)cc3)no2)c1 [compound 13596] | 47.56% | 46.1 | 49 | 
4 | COC(=O)C(NC(=O)c1cc(C)n(-c2cccc(Cl)c2)n1)c1ccc(C(F)(F)F)cc1 (centres unmarked) [compound 14083] | 24.29% |  |  | 
5 | O=C1CN(C(=O)c2ccc(Cl)c3cccnc23)CN1Cc1ccccc1 [compound 14861] | 15.10% | 15 | 15.3 | 15
6 | Cc1cc(C(=O)NC(CCO)Cc2ccccc2)nn1-c1ccc(F)cc1 (centres unmarked) [compound 15032] | -0.53% |  |  | 
7 | Cc1cc(C(=O)NC(c2ccc(Cl)cc2)c2ccn(C)n2)nn1-c1cccc(F)c1 (centres unmarked) [compound 17429] | 23.12% |  |  | 
8 | Cn1cc2c(n1)CCCC2c1nc(C2(c3cccc(C(F)(F)F)c3)CC2)no1 (centres unmarked) [compound 18525] | 41.38% | 39.7 | 46.2 | 38.2
9 | COC(=O)C(NC(=O)c1coc(C2CCOCC2)n1)c1cccs1 (centres unmarked) [compound 19213] | 1.83% |  |  | 
10 | Cc1c(C(=O)NCC2CSc3ccccc3O2)nnn1Cc1ccc(F)cc1 (centres unmarked) [compound 22139] | 13.03% |  |  | 
11 | COC(=O)c1nc(N(C)CCOc2ccc(Br)cc2)sc1C [compound 22875] | 27.03% | 25.7 | 29.1 | 26.3
12 | O=C(OCC1CSc2ccccc2O1)c1cn(Cc2cccc(F)c2)nn1 (centres unmarked) [compound 23346] | 25.27% |  |  | 
13 | Fc1ccc(-n2ncc3c(SCc4cc(-c5ccco5)on4)ncnc32)cc1 [compound 23397] | 17.08% | 23 | 15.9 | 12.4
14 | COC(=O)c1cc(C(=O)N2CCc3ccc(Cl)cc3C2)cc([N+](=O)[O-])c1 [compound 25719] | 24.96% | 30.1 | 24.6 | 20.2
15 | Cc1ccc(OCCC(=O)N2CC3CCCN3c3ccccc32)c(C)c1 (centres unmarked) [compound 26701] | 35.34% | 39 | 34.5 | 32.6
16 | CC1C(C(F)(F)F)CCN1C(=O)c1csc(N(C)c2ccccc2)n1 (centres unmarked) [compound 27005] | 32.20% | 31.7 | 30.7 | 34.2
17 | O=C(OCC1CSc2ccccc2O1)c1ccc(Cn2cccc2)cc1 (centres unmarked) [compound 30177] | 18.40% |  |  | 
18 | Cn1nc(-c2nnc(C(C)(C)Oc3ccc(F)cc3)o2)c2ccccc2c1=O [compound 31486] | 32.26% |  |  | 
19 | Cc1c(C(=O)OCC2COc3ccccc3O2)cnn1Cc1ccccc1 (centres unmarked) [compound 32445] | 35.36% |  |  | 
20 | N#CCCn1ncc(C(=O)N2CCC(F)(c3cc(F)cc(F)c3)C2)c1-c1ccccc1 (centres unmarked) [compound 34734] | 15.43% | 21.6 | 10.3 | 14.4
21 | CC(Oc1ccccc1)c1noc(-c2ccc(=O)n(-c3ccc(F)cc3)n2)n1 (centres unmarked) [compound 34765] | 18.38% | 25 | 13.3 | 16.8
22 | N#Cc1cccc(OCc2ccoc2C(=O)OCC2CSc3ccccc3O2)c1 (centres unmarked) [compound 35424] | 60.22% |  |  | 
23 | Cc1ccn2cc(C(=O)N3CCc4c(F)cc(Br)cc4C3)nc2c1 [compound 35971] | 13.78% | 9.7 | 11.6 | 20
24 | CC(C)n1nc(-c2nnc(C(C)(C)Oc3ccc(Cl)cc3)o2)c2ccccc2c1=O [compound 41360] | 41.24% |  |  | 
25 | O=C(c1ccccc1CS(=O)(=O)c1ccccc1)N1CCC(c2cccc(F)c2)C1 (centres unmarked) [compound 41949] | 33.74% | 30 | 36.7 | 34.6
26 | O=C1CN(C(=O)c2cc3cc(Br)ccc3o2)CN1Cc1ccccc1 [compound 46675] | 22.64% | 22.6 |  | 

Row | Compound | % 1H-CP-55,940 displacement (mean) from single point screen | rep1_displacement | rep2_displacement | rep3_displacement
27 | O=C(OCc1nc2ccccc2s1)c1c2c(nc3ccccc13)CCC2 [compound 47700] | 27.24% | 29.5 | 33.4 | 18.9
28 | COCCOc1cc(C(=O)N2CCCC(CC3CCOC3)C2)nc2ccccc12 (centres unmarked) [compound 49667] | 4.27% | 10.3 | 4.1 | -1.6
29 | O=C(OCC1CSc2ccccc2O1)c1cc(Oc2ccccc2)ccn1 (centres unmarked) [compound 50267] | 15.53% |  |  | 
30 | C=CCn1c(SC(C)COC)nc2cc(-c3ccccc3)sc2c1=O (centres unmarked) [compound 50746] | 26.93% | 27.8 | 26.8 | 26.1
31 | Cc1nc(CC2CC2)oc1-c1nc(Cc2cc(Br)c3c(c2)OCO3)no1 [compound 53217] | 14.33% |  |  | 
32 | COC(=O)C(NC(=O)c1cn(Cc2ccccc2)nn1)c1cccs1 (centres unmarked) [compound 54064] | 4.29% |  |  | 
33 | CN(CCOc1ccc(Br)cc1)c1ncnc(-c2ccccc2)n1 [compound 55901] | 23.61% | 24.5 | 26.2 | 20.1
34 | CC(C)c1ncc(Cl)c(C(=O)N2CC(Cc3ccccc3Cl)C2)n1 [compound 56513] | 36.74% | 17.6 | 25.1 | 67.5
35 | COC(=O)[C@@H](NC(=O)c1cc(C)n(-c2cccc(F)c2)n1)c1ccc(OC)cc1 [compound 59513] | 10.54% |  |  | 
36 | O=c1c2cnn(-c3ccccc3)c2nnn1Cc1cc(Cl)ccc1Cl [compound 59552] | 38.03% | 36.6 | 38.4 | 39.1
37 | COC(=O)C(NC(=O)c1cc(C)n(-c2ccccc2)n1)c1cccs1 (centres unmarked) [compound 59643] | 4.63% |  |  | 
38 | COC(=O)C(NC(=O)c1csc(Cc2ccccc2)n1)c1cccs1 (centres unmarked) [compound 61815] | 32.97% |  |  | 
39 | Cc1c(C(=O)OCC2CSc3ccccc3O2)nnn1Cc1ccc(F)cc1 (centres unmarked) [compound 61926] | 64.39% |  |  | 
40 | COC(=O)C(OC(=O)c1cc(C)n(-c2ccc(F)cc2)n1)c1ccccc1 (centres unmarked) [compound 62406] | -3.66% |  |  | 
41 | CCOC(=O)C1(NC(=O)c2cc(C)n(-c3cccc(Cl)c3)n2)CCCCC1 [compound 64801] | 31.60% |  |  | 
42 | CCOC(=O)C(NC(=O)c1cc(C)n(-c2cccc(F)c2)n1)C1CCOCC1 (centres unmarked) [compound 64854] | -2.51% |  |  | 
43 | COc1cc(C(=O)OCC2CCCN2c2ccc(C)nn2)ccc1Cl (centres unmarked) [compound 65703] | 17.38% | 11.4 | 18.4 | 22.4
44 | Cn1ncc2c(N3CCC(COCc4ccccc4)C3)nc(Cl)nc21 (centres unmarked) [compound 66978] | -5.01% | 10 | -21.7 | -3.3
45 | O=C(OCc1ncnn1-c1ccccc1)c1csc(Cc2ccccc2F)n1 [compound 67565] | 8.02% | 8 |  | 8
46 | COC(=O)[C@@H](NC(=O)c1cc(C)n(-c2cccc(Cl)c2)n1)c1ccc(OC)cc1 [compound 69543] | 10.83% |  |  | 
47 | CC1OCCC12CN(C(=O)c1oc3ccccc3c1COc1ccccc1)CCO2 (centres unmarked) [compound 70889] | 46.62% | 47.8 | 46.3 | 45.8
48 | CC(O)C1CCCN(C(=O)c2cc(Oc3cccc(Br)c3)ccn2)C1 (centres unmarked) [compound 74717] | 17.22% | 25.4 | 11.4 | 14.8
49 | Cc1cc(C(=O)NC(c2cccnc2)C2CC2)nn1-c1cccc(C#N)c1 (centres unmarked) [compound 74836] | 33.29% | 34.5 | 34.8 | 30.5
50 | Cc1onc(-c2ccccc2)c1C(=O)OCc1cn2cc(Cl)ccc2n1 [compound 74872] | 49.60% | 51.6 | 49.2 | 48
51 | COC(=O)C(OC(=O)c1cc(C)n(-c2cccc(Cl)c2)n1)c1ccsc1 (centres unmarked) [compound 75729] | 29.65% | 32.1 | 28 | 28.8
